How the values were obtained:
[1] = test system: OCI-Ly19; assay: CellTiter-Glo cell viability assay; assay type: cell-based; details: Homo sapiens, 72 hours
Method: (§1) CellTiter-Glo® Luminescent cell viability assay (Promega) was used to assess cell survival following treatment with the compounds described. Cells were seeded into 384 well plates with the EL406 Combination Washer Dispenser (BioTek Instruments, Inc.), and the compounds were injected into the cells culture media with the JANUS Automated Workstation (PerkinElmer Inc.). Cells were treated with a series diluted inhibitors (20˜0.04 μM) for 72 hours at 37° C. Luminescent measurement is performed using the 2104 Envision® Multilabel Reader (PerkinElmer Inc.).

[2] = test system: BCWM.1; assay: CellTiter-Glo cell viability assay; assay type: cell-based
Method: as §1

[3] = test system: Ramos; assay: CellTiter-Glo cell viability assay; assay type: cell-based; details: 72 hours
Method: as §1

[4] = test system: MWCL-1; assay: CellTiter-Glo cell viability assay; assay type: cell-based
Method: as §1

[5] = test system: OCI-Ly3; assay: CellTiter-Glo cell viability assay; assay type: cell-based
Method: as §1

[6] = target: BTK (Homo sapiens (Human), UniProt Q06187); assay: Invitrogen Select Screening kinase assay; assay type: biochemical; details: in vitro
Chain of BTK (Q06187 whole entry): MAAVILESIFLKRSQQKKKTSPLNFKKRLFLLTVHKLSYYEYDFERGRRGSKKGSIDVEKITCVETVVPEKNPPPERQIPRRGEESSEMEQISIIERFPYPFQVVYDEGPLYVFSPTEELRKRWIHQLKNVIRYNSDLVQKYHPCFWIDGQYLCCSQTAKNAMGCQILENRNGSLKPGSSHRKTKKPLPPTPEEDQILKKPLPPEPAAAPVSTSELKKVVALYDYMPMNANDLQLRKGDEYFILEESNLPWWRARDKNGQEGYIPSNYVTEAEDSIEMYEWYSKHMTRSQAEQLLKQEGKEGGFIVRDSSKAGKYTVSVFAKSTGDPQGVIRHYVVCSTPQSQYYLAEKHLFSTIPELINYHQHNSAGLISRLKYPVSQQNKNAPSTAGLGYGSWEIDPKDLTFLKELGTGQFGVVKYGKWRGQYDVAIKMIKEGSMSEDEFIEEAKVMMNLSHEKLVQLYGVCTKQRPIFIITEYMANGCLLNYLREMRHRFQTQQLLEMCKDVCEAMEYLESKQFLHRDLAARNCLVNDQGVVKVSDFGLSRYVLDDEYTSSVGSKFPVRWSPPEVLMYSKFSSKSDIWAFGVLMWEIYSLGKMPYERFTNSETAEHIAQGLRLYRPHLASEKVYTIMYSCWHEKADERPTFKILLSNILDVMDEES
From the text: The in vitro activity of the compounds described herein in inhibiting TAK1, HCK, and other kinases were obtained using an Invitrogen Select Screening assay as known in the art. The IC50 values determined from this assay are shown below.

[7] = test system: RPCIWM-1; assay: CellTiter-Glo cell viability assay; assay type: cell-based; details: 72 hours
Method: as §1

[8] = target: HCK (Homo sapiens (Human), UniProt P08631); assay: Invitrogen Select Screening kinase assay; assay type: biochemical; details: in vitro, read-out: HCK IC50 (nM) Inv
Chain of HCK (P08631 whole entry): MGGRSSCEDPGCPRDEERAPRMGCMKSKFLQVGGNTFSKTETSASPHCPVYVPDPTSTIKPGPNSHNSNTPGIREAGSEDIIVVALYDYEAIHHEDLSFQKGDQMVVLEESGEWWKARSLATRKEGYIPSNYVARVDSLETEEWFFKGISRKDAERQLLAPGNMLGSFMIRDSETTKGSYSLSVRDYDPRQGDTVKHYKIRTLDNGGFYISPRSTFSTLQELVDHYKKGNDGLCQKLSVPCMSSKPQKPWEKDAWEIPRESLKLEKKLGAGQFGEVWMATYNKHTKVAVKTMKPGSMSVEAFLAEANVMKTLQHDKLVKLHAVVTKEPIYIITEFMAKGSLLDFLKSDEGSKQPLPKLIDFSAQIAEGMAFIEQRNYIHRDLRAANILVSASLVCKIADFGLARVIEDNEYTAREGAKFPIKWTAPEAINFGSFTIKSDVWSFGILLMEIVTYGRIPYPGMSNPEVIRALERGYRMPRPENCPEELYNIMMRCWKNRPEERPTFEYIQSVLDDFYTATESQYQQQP

| Compound | EC50 [1] [nM] | EC50 ([2]; BCWM1, 72 h) [nM] | EC50 ([3]; Homo sapiens, Ramos) [nM] | EC50 ([4]; 72 h) [nM] | EC50 ([5]; Homo sapiens, OCI-Ly3, 72 h) [nM] | IC50 [6] [nM] | EC50 [7] [nM] | IC50 [8] [nM] | EC50 ([2]; 72 hours) [nM] | EC50 [3] [nM] | EC50 ([4]; 72 hours) [nM] | EC50 ([5]; 72 hours) [nM] |
| --- | --- | --- | --- | --- | --- | --- | --- | --- | --- | --- | --- | --- |
| CCN1CCN(Cc2ccc(C(=O)Nc3ccc(C)c(NC(=O)c4cncc(-c5cccs5)c4)c3)cc2C(F)(F)F)CC1 [I-1, N-(5-(4-((4-ethylpiperazin-1-yl)methyl)-3-(trifluoromethyl)benzamido)-2-methylphenyl)-5-(thiophen-2-yl)nicotinamide] | 552 | 38 | 4150 | 459 | 2900 | 22.9 | – | – | – | – | – | – |
| Cc1cn(-c2cc(NC(=O)c3ccc(C)c(NC(=O)c4cncc(-c5cccs5)c4)c3)cc(C(F)(F)F)c2)cn1 [I-3, N-(2-methyl-5-((3-(4-methyl-1H-imidazol-1-yl)-5-(trifluoromethyl)phenyl)carbamoyl)phenyl)-5-(thiophen-2-yl)nicotinamide] | 508 | 141 | 555 | 355 | 411 | 196 | 725 | – | – | – | – | – |
| Cc1ccc(C(=O)Nc2cc(N3CCN(C)CC3)cc(C(F)(F)F)c2)cc1NC(=O)c1cncc(-c2cccs2)c1 [I-4, N-(2-methyl-5-((3-(4-methylpiperazin-1-yl)-5-(trifluoromethyl)phenyl)carbamoyl)phenyl)-5-(thiophen-2-yl)nicotinamide] | – | – | – | – | – | 459 | – | – | – | – | – | – |
| CCN1CCN(c2ccc(NC(=O)c3ccc(C)c(NC(=O)c4cncc(-c5cccs5)c4)c3)cc2C(F)(F)F)CC1 [I-5, N-(5-((4-(4-ethylpiperazin-1-yl)-3-(trifluoromethyl)phenyl)carbamoyl)-2-methylphenyl)-5-(thiophen-2-yl)nicotinamide] | 1560 | 365 | 989 | 1090 | 2160 | 3910 | 0.02 | – | – | – | – | – |
| Cc1ccc(C(=O)Nc2cc(N3CCOCC3)cc(N3CCOCC3)c2)cc1NC(=O)c1cncc(-c2cccs2)c1 [I-7, N-(5-((3,5-dimorpholinophenyl)carbamoyl)-2-methylphenyl)-5-(thiophen-2-yl)nicotinamide] | 2970 | 180 | 2380 | 1760 | 3540 | 3420 | 4800 | – | – | – | – | – |
| CCN1CCN(Cc2ccc(NC(=O)c3ccc(C)c(NC(=O)c4cncc(-c5cnoc5)c4)c3)cc2C(F)(F)F)CC1 [I-8] | – | – | – | – | – | 69.7 | – | 5.33 | – | – | – | – |
| CCN1CCN(Cc2ccc(NC(=O)c3ccc(C)c(NC(=O)c4cncc(-c5cnn(C)c5)c4)c3)cc2C(F)(F)F)CC1 [I-9] | – | – | – | – | – | 25.3 | – | 2.43 | – | – | – | – |
| N-(2-chloro-5-((4-((4- ethylpiperazin-1-yl)methyl)- 3-(trifluoromethyl)phenyl) carbamoyl)phenyl)-5- (thiophen-2-yl)nicotinamide [I-2] | – | – | – | – | – | – | 110 | – | 12 | 60 | 16 | 161 |

From patent US10597387B2, “Methods to treat lymphoplasmacytic lymphoma” (Dana-Farber Cancer Institute, Inc., priority 2013, dated 2020)
